Measurements taken from a flash point compilation (Sun et al. 2020).
Structures can show the parent of a compound that is named as a salt.

Compound | flash point [°C]
Cc1cccc(C)c1N.Cl [2,6-dimethylaniline;hydrochloride] | 91.00
CC(C)CC(=O)CC(C)C [2,6-dimethylheptan-4-one] | 60.00
CC(Oc1ccc(Cl)cc1Cl)C(=O)O (centres undefined) [2-(2,4-dichlorophenoxy)propanoic acid] | 204.00
CCCCOCCOCCSC#N [2-(2-butoxyethoxy)ethyl thiocyanate] | 52.00
CCOCCOCCOC(C)=O [2-(2-ethoxyethoxy)ethyl acetate] | 110.00
CCCCCCOCCOCCO [2-(2-hexoxyethoxy)ethanol] | 141.00
OCCOCCO [2-(2-hydroxyethoxy)ethanol] | 143.00
OCCNCCO [2-(2-hydroxyethylamino)ethanol] | 137.00
Oc1cc(O)c2cc(O)c(-c3cc(O)c(O)c(O)c3)[o+]c2c1.[Cl-] [2-(3,4,5-trihydroxyphenyl)chromenylium-3,5,7-triol;chloride] | 193.00
CC(C)=CCC1CCCC1=O (centres undefined) [2-(3-methylbut-2-enyl)cyclopentan-1-one] | 23.00
OCCN1CC1 [2-(aziridin-1-yl)ethanol] | 67.00
CCCCN(CCO)CCCC [2-(dibutylamino)ethanol] | 99.00
CCN(CC)CCO [2-(diethylamino)ethanol] | 60.00
C=CC(=O)OCCN(CC)CC [2-(diethylamino)ethyl prop-2-enoate] | 91.00
CN(C)CCO [2-(dimethylamino)ethanol] | 41.00
C=C(C)C(=O)OCCN(C)C [2-(dimethylamino)ethyl 2-methylprop-2-enoate] | 74.00
CCNCCO [2-(ethylamino)ethanol] | 71.00
C(OCC1CO1)C1CO1 (centres undefined) [2-(oxiran-2-ylmethoxymethyl)oxirane] | 64.00
CC(C)OCC1CO1 (centres undefined) [2-(propan-2-yloxymethyl)oxirane] | 33.00
C=C(C)C(=O)OCCNC(C)(C)C [2-(tert-butylamino)ethyl 2-methylprop-2-enoate] | 96.00
ClC(Cl)(Cl)C1CO1 (centres undefined) [2-(trichloromethyl)oxirane] | 67.00
CCCCCCCCCCOC(=O)c1ccccc1C(=O)OCCCCCCCC [2-O-decyl 1-O-octyl benzene-1,2-dicarboxylate] | 235.00
CCOCCOCCOCCO [2-[2-(2-ethoxyethoxy)ethoxy]ethanol] | 135.00
OCCOCCOCCO [2-[2-(2-hydroxyethoxy)ethoxy]ethanol] | 166.00
CC(O)COC(C)COC(C)CO (centres undefined) [2-[2-(2-hydroxypropoxy)propoxy]propan-1-ol] | 141.00

Compound | flash point [°C]
CN(C)CCOCCN(C)C [2-[2-(dimethylamino)ethoxy]-N,N-dimethylethanamine] | 79.00
CCCCOCCOCCOCCOCCO [2-[2-[2-(2-butoxyethoxy)ethoxy]ethoxy]ethanol] | 166.00
COCCOCCOCCOCCO [2-[2-[2-(2-methoxyethoxy)ethoxy]ethoxy]ethanol] | 161.00
CN(CCO)CCO [2-[2-hydroxyethyl(methyl)amino]ethanol] | 127.00
Cc1ccccc1OCC1CO1 (centres undefined) [2-[(2-methylphenoxy)methyl]oxirane] | 93.00
CC(C)(C)OCC1CO1 (centres undefined) [2-[(2-methylpropan-2-yl)oxymethyl]oxirane] | 43.00
c1cc(OCC2CO2)cc(OCC2CO2)c1 (centres undefined) [2-[[3-(oxiran-2-ylmethoxy)phenoxy]methyl]oxirane] | 177.00
CC(=O)Oc1ccccc1C(=O)O [2-acetyloxybenzoic acid] | 250.00
CC(=O)OCC(C)OC(C)=O (centres undefined) [2-acetyloxypropyl acetate] | 86.00
Nc1ccccc1C(=O)O [2-aminobenzoic acid] | 171.00
NCCO [2-aminoethanol] | 93.00
Nc1ccccc1O [2-aminophenol] | 168.00
Oc1ccc(Cl)cc1Cc1ccccc1 [2-benzyl-4-chlorophenol] | 188.00
O=C(O)C(Cl)Br (centres undefined) [2-bromo-2-chloroacetic acid] | 110.00
CC(C)(C)Br [2-bromo-2-methylpropane] | -16.00
O=[N+]([O-])C(Br)(CO)CO [2-bromo-2-nitropropane-1,3-diol] | 167.00
O=C(O)CBr [2-bromoacetic acid] | 113.00
CCC(C)Br (centres undefined) [2-bromobutane] | 21.00
CCCC(C)Br (centres undefined) [2-bromopentane] | 21.00
CCCCOCCOC(C)=O [2-butoxyethyl acetate] | 71.00
O=C(CCl)c1ccccc1 [2-chloro-1-phenylethanone] | 118.00
CC(C)(Cl)[N+](=O)[O-] [2-chloro-2-nitropropane] | 57.00
C=CCN(CC=C)C(=O)CCl [2-chloro-N,N-bis(prop-2-enyl)acetamide] | 186.00
O=C(O)CCl [2-chloroacetic acid] | 150.00
Nc1ccccc1Cl [2-chloroaniline] | 98.00

Compound | flash point [°C]
C=C(Cl)C#N [2-chloroprop-2-enenitrile] | 7.00
CC(C)Cl [2-chloropropane] | -32.00
CC(Cl)C(=O)O (centres undefined) [2-chloropropanoic acid] | 107.00
C=CC(=O)OCCC#N [2-cyanoethyl prop-2-enoate] | 124.00
O=C1c2ccccc2C(=O)N1SC1CCCCC1 [2-cyclohexylsulfanylisoindole-1,3-dione] | 177.00
CNC(=O)CSP(=S)(OC)OC [2-dimethoxyphosphinothioylsulfanyl-N-methylacetamide] | 51.00
CCCCCCCCCCCCc1ccccc1O [2-dodecylphenol] | 163.00
C=CC1CO1 (centres undefined) [2-ethenyloxirane] | -46.00
CCOC(C)(C)C [2-ethoxy-2-methylpropane] | -19.00
CCOCC(=O)O [2-ethoxyacetic acid] | 98.00
CCC(CO)(CO)CO [2-ethyl-2-(hydroxymethyl)propane-1,3-diol] | 172.00
CCc1ccccc1N [2-ethylaniline] | 85.00
C=CC(=O)OCC(CC)CC [2-ethylbutyl prop-2-enoate] | 52.00
CCCC=C(C=O)CC [2-ethylhex-2-enal] | 68.00
C=C(C)C(=O)OCC(CC)CCCC (centres undefined) [2-ethylhexyl 2-methylprop-2-enoate] | 92.00
CCCCC(CC)COC(C)=O (centres undefined) [2-ethylhexyl acetate] | 88.00
CCc1ccc2ccccc2c1 [2-ethylnaphthalene] | 104.00
CCc1ccccc1O [2-ethylphenol] | 78.00
CCC(C(=O)O)C(=O)O [2-ethylpropanedioic acid] | 85.00
O=C(Cl)c1ccccc1F [2-fluorobenzoyl chloride] | 82.00
O=COCCOC=O [2-formyloxyethyl formate] | 93.00
CC(C)(C)OO [2-hydroperoxy-2-methylpropane] | 27.00
CC(C)(OO)c1ccccc1 [2-hydroperoxypropan-2-ylbenzene] | 57.00
N#CC(O)c1ccccc1 (centres undefined) [2-hydroxy-2-phenylacetonitrile] | 82.00
CSCCC(O)C(=O)O (centres undefined) [2-hydroxy-4-methylsulfanylbutanoic acid] | 121.00

Compound | flash point [°C]
O=Cc1ccccc1O [2-hydroxybenzaldehyde] | 78.00
O=C(O)c1ccccc1O [2-hydroxybenzoic acid] | 157.00
C=C(C)C(=O)OCCO [2-hydroxyethyl 2-methylprop-2-enoate] | 97.00
C=CC(=O)OCCO [2-hydroxyethyl prop-2-enoate] | 101.00
C=CC(=O)OCC(C)O (centres undefined) [2-hydroxypropyl prop-2-enoate] | 65.00
CCC(C)(C)OC [2-methoxy-2-methylbutane] | -7.00
COC(C)(C)C [2-methoxy-2-methylpropane] | -26.00
C=CCc1ccc(O)c(OC)c1 [2-methoxy-4-prop-2-enylphenol] | 104.00
COc1ccccc1N [2-methoxyaniline] | 99.00
C=CC(=O)OCCOC [2-methoxyethyl prop-2-enoate] | 82.00
CC(C=O)=Cc1ccccc1 [2-methyl-3-phenylprop-2-enal] | 79.00
Cc1ccc(C(C)C)cc1O [2-methyl-5-propan-2-ylphenol] | 100.00
CC(C)CN(CC(C)C)CC(C)C [2-methyl-N,N-bis(2-methylpropyl)propan-1-amine] | 51.00
CC1CN1 (centres undefined) [2-methylaziridine] | -4.00
Cc1ccccc1C=O [2-methylbenzaldehyde] | 67.00
C#CC(C)(C)O [2-methylbut-3-yn-2-ol] | 25.00
CCC(C)C [2-methylbutane] | -57.00
CC1CCCCC1O (centres undefined) [2-methylcyclohexan-1-ol] | 59.00
CCCCCC(C)(C)S [2-methylheptane-2-thiol] | 46.00
Cc1ccc2ccccc2c1 [2-methylnaphthalene] | 98.00
CC(C#N)CCC#N (centres undefined) [2-methylpentanedinitrile] | 126.00
Cc1ccccc1O [2-methylphenol] | 81.00
C=C(C)CO [2-methylprop-2-en-1-ol] | 33.00
C=C(C)C#N [2-methylprop-2-enenitrile] | 13.00
